Measurements from ChEMBL document CHEMBL3227989, “Coenzyme--substrate adducts as inhibitors of mouse liver 3,4-dihydroxyphenylalanine decarboxylase” (J Med Chem, 1979).
Values belong to the molecule of their own block, whether it stands above or below them.

Columns and labels:
[1] = biological target: T1, Aromatic-L-amino-acid decarboxylase (Mus musculus) (UniProt O88533); test: Inhibition of ICR Swiss mouse liver dopa decarboxylase at 10^-3 M after 15 mins
T1 sequence (whole entry): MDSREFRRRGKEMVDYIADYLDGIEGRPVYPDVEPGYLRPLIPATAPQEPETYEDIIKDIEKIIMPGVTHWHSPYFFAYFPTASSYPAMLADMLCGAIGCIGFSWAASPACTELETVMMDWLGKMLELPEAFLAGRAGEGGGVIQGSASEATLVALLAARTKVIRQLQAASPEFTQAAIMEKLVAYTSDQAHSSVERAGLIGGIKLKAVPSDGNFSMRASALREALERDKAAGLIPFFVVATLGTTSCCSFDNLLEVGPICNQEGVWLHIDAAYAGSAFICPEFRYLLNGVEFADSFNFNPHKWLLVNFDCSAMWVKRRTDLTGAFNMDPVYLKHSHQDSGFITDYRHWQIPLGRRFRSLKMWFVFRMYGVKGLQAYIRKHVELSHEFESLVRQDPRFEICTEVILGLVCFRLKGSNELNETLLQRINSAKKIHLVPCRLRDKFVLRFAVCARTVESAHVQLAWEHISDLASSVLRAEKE

[2] = biological target: T1, Aromatic-L-amino-acid decarboxylase (Mus musculus); test: Inhibition of ICR Swiss mouse liver dopa decarboxylase at 2 X 10^-5 M after 15 mins
[3] = biological target: T1, Aromatic-L-amino-acid decarboxylase (Mus musculus); test: Inhibition of ICR Swiss mouse liver dopa decarboxylase at 2 X 10^-3 M after 15 mins
[4] = biological target: T1, Aromatic-L-amino-acid decarboxylase (Mus musculus); test: Inhibition of ICR Swiss mouse liver dopa decarboxylase at 10^-4 M after 15 mins
[5] = biological target: T1, Aromatic-L-amino-acid decarboxylase (Mus musculus); test: Inhibition of ICR Swiss mouse liver dopa decarboxylase at 10^-5 M after 15 mins
[6] = biological target: T2, Aromatic-L-amino-acid decarboxylase (Mus musculus, UniProt O88533); test: Inhibition of ICR Swiss mouse liver dopa decarboxylase after 15 mins
T2 sequence (O88533 whole entry): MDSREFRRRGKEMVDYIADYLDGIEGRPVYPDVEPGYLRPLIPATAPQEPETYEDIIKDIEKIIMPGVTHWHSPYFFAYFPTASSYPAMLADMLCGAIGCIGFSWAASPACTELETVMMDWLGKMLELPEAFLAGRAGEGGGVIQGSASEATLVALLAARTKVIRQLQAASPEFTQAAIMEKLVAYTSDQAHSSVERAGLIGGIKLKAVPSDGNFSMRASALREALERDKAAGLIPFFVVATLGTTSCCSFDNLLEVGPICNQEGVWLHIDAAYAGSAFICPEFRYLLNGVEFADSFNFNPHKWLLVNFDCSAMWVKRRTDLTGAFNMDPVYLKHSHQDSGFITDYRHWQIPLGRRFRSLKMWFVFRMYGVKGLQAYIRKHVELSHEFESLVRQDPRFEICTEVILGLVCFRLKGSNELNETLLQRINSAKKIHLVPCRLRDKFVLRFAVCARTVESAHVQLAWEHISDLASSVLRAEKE

[7] = biological target: T1, Aromatic-L-amino-acid decarboxylase (Mus musculus); test: Inhibition of ICR Swiss mouse liver dopa decarboxylase at 2 X 10^-4 M after 15 mins
[8] = compound: Cc1ncc(COP(=O)(O)O)c(CN[C@@H](Cc2ccc(O)c(O)c2)C(=O)O)c1O; test: Inhibition of pig liver dopa decarboxylase; conditions: Sus scrofa

inhibition [1]: < 10%
Molecule: Cc1ncc(COP(=O)(O)O)c(C2NC(C(=O)O)Cc3cc(O)c(O)cc32)c1O (racemic)

inhibition [2]: 53%
inhibition [3]: 62%
Molecule: Cc1ncc(COP(=O)(O)O)c(CNC(Cc2ccccc2O)C(=O)O)c1O (racemic)

inhibition [1]: 83%
inhibition [3]: 85%
inhibition [4]: 57%
inhibition [5]: 17%
Molecule: Cc1ncc(COP(=O)(O)O)c(CN[C@@H](Cc2ccccc2)C(=O)O)c1O

IC50 [6]: 70 µM
Molecule: Cc1ncc(COP(=O)(O)O)c(CN[C@@H](Cc2ccc(O)cc2)C(=O)O)c1O

inhibition [7]: 15%
inhibition [3]: 50%
Molecule: Cc1cnc(C)c(O)c1CNC(Cc1ccc(O)c(O)c1)C(=O)O (racemic)

IC50 [6]: 10 µM
Molecule: Cc1ncc(COP(=O)(O)O)c(CN[C@@H](Cc2ccc(O)c(O)c2)C(=O)O)c1O

inhibition [2]: 63%
Molecule: Cc1ncc(COP(=O)(O)O)c(CNC(Cc2ccc(O)c(O)c2)C(=O)O)c1O (racemic)

B1: Aromatic-L-amino-acid decarboxylase (Sus scrofa), P80041 (protein)
chain: MNASDFRRRGKEMVDYMADYLEGIEGRQVYPDVQPGYLRPLIPATAPQEPDTFEDILQDVEKIIMPGVTHWHSPYFFAYFPTASSYPAMLADMLCGAIGCIGFSWAASPACTELETVMMDWLGKMLQLPEAFLAGEAGEGGGVIQGSASEATLVALLAARTKVVRRLQAASPGLTQGAVLEKLVAYASDQAHSSVERAGLIGGVKLKAIPSDGKFAMRASALQEALERDKAAGLIPFFVVATLGTTSCCSFDNLLEVGPICHEEDIWLHVDAAYAGSAFICPEFRHLLNGVEFADSFNFNPHKWLLVNFDCSAMWVKRRTDLTGAFKLDPVYLKHSHQGSGLITDYRHWQLPLGRRFRSLKMWFVFRMYGVKGLQAYIRKHVQLSHEFEAFVLQDPRFEVCAEVTLGLVCFRLKGSDGLNEALLERINSARKIHLVPCRLRGQFVLRFAICSRKVESGHVRLAWEHIRGLAAELLAAEEGKAEIKS
Km [8]: 190 µM
